Experimental data as given in patent publication US20050186568A1, “Kinases and phosphatases” (priority 2001, published 2005).

What was measured:
[1] = tested on: SEQ ID NO:67; assay: Microarray analysis of SEQ ID NO:67 expression in steroid-treated C3A cells; assay type: cell-based, human; conditions: early confluent C3A cells treated for 1, 3, or 6 hours
Procedure: (§1) Total RNA is isolated from tissue samples using the guanidinium thiocyanate method and poly(A)^+ RNA is purified using the oligo-(dT) cellulose method. Each poly(A)^+ RNA sample is reverse transcribed using MMLV reverse-transcriptase, 0.05 pg/μl oligo-(dT) primer (21 mer), 1× first strand buffer, 0.03 units/μl RNase inhibitor, 500 μM dATP, 500 μM dGTP, 500 μM dTTP, 40 μM dCTWP, 40 μM dCTP-Cy3 (BDS) or dCTP-Cy5 (Amersham Biosciences). The reverse transcription reaction is performed in a […] containing 200 ng poly(A)^+ RNA with GEMBRIGHT kits (Incyte Genomics). Specific control poly(A)^+ RNAs are synthesized by in vitro transcription from non-coding yeast genomic DNA. After incubation at 37° C. for 2 hr, each reaction sample (one with Cy3 and another with Cy5 labeling) is treated with […] of 0.5M sodium hydroxide and incubated for 20 minutes at 85° C. to the stop the reaction and degrade the RNA. Samples are purified using two successive CHROMA SPIN 30 gel filtration spin columns (Clontech, Palo Alto Calif.) and after combining, both reaction samples are ethanol precipitated using […] of 100% ethanol. The sample is then dried to completion using a SpeedVAC (Savant Instruments Inc., Holbrook N.Y.) and resuspended in 14 μl 5×SSC/0.2% SDS.
Sequences of the present invention are used to generate array elements. Each array element is amplified from bacterial cells containing vectors with cloned cDNA inserts. PCR amplification uses primers complementary to the vector sequences flanking the cDNA insert. Array elements are amplified in thirty cycles of PCR from an initial quantity of 1-2 ng to a final quantity greater than 5 μg. Amplified array elements are then purified using SEPHACRYL-400 (Amersham Biosciences).
Purified array elements are immobilized on polymer-coated glass slides. Glass microscope slides (Corning) are cleaned by ultrasound in 0.1% SDS and acetone, with extensive distilled water washes between and after treatments. Glass slides are etched in 4% hydrofluoric acid (VWR Scientific Products Corporation (VWR), West Chester Pa.), washed extensively in distilled water, and coated with 0.05% aminopropyl silane (Sigma) in 95% ethanol. Coated slides are cured in a 110° C. oven.
Array elements are applied to the coated glass substrate using a procedure described in U.S. Pat. No. 5,807,522, incorporated herein by reference. 1 μl of the array element DNA, at an average concentration of 100 ng/μl, is loaded into the open capillary printing element by a high-speed robotic apparatus. The apparatus then deposits about 5 nl of array element sample per slide.
Microarrays are UV-crosslinked using a STRATALINKER UV-crosslinker (Stratagene). […]

[2] = tested on: SEQ ID NO:57; assay: Microarray analysis of SEQ ID NO:57 expression in steroid-treated C3A cells; assay type: cell-based, human; conditions: early confluent C3A cells, 1, 3 and 6 hours (all time points), compared to untreated C3A cells
Procedure: as §1, with “The sample is then dried to completion using a SpeedVAC (Savant Instruments Inc., Holbrook N.Y.) and resuspended in 14 μl 5×SSC/0.2% SDS.” left out
Sequences of the present invention are used to generate array elements. […] Array elements are amplified in thirty cycles of PCR from an initial quantity of 1-2 ng to a final quantity greater than 5 μg. […]

[3] = biological target: CKI-epsilon (Homo sapiens, UniProt P49674); conditions: recombinant expression; cited from earlier work
Sequence of CKI-epsilon (P49674 whole entry): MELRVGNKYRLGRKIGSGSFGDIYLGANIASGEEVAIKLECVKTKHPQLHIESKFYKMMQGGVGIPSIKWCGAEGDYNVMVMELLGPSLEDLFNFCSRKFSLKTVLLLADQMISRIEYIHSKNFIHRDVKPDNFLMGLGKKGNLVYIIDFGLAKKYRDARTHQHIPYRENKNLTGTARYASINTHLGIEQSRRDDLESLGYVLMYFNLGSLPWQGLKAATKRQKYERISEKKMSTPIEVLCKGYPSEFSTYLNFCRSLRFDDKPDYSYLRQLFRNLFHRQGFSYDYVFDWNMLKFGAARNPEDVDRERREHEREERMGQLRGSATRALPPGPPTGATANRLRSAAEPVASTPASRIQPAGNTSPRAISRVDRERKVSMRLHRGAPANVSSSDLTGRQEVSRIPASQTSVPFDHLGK

[4] = relative to progesterone; cited from earlier work

## CC(=O)[C@H]1CC[C@H]2[C@@H]3CCC4=CC(=O)CC[C@]4(C)[C@H]3CC[C@]12C [progesterone]
[1]
  expression of SEQ ID NO:67: at least a two-fold decrease
[2]; progesterone at 100 μM
  expression of SEQ ID NO:57: increased by at least two-fold

## NCCNS(=O)(=O)c1ccc(Cl)c2ccncc12 [CKI-7]
[3]
  inhibition of CKI-epsilon: inhibited

## C[C@]12C=CC(=O)C=C1CC[C@@H]1[C@@H]2C(=O)C[C@@]2(C)[C@H]1CC[C@]2(O)C(=O)CO [prednisone]
[1]
  expression of SEQ ID NO:67: at least a two-fold decrease

## C[C@H]1C[C@H]2[C@@H]3CCC4=CC(=O)C=C[C@]4(C)[C@@]3(Cl)[C@@H](O)C[C@]2(C)[C@@]1(O)C(=O)CO [beclomethasone]
[1]
  expression of SEQ ID NO:67: at least a two-fold decrease
[2]; beclamethasone at 10 μM
  expression of SEQ ID NO:57: increased by at least two-fold

## 6α-methyl-17-hydroxyprogesterone [medroxyprogesterone]
[1]
  expression of SEQ ID NO:67: at least a two-fold decrease
[4]
  pharmacological activity greater than progesterone: about 15 times
